From patent US20250228239A1, “MOLECULES HAVING PESTICIDAL UTILITY, AND INTERMEDIATES, COMPOSITIONS, AND PROCESSES, RELATED THERETO” (priority 2024, published 2025)

Columns and labels:
Type in all cases: in vivo
[1] = system: Yellow Fever Mosquito (Aedes aegypti, AEDSAE); conditions: Table ABC: Biological Results; species YFM
How it was run: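 Compounds from DMSO master plates (4000 ppm stock) diluted in 90:10 water/acetone, then dispensed into six replicate plates and infested with ~1-day-old Aedes aegypti larvae in liver-powder water. Held covered at room temperature for 3 days; each well scored for larval mortality and graded on a rating scale.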

[2] = system: Cabbage Looper (Trichoplusia ni, TRIPNI); assay: Bioassays on Cabbage Looper (CL), 128-well diet tray assay; conditions: Trichoplusia ni; Table ABC: Biological Results; species CL; read-out: CL
How it was run: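 Activity is mean percent mortality over eight wells of second-instar larvae exposed to diet treated at 50 μg/cm^2 for 5–7 days at 25° C.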

[3] = system: Beet Armyworm (Spodoptera exigua, LAPHEG); assay: Bioassays on Beet Armyworm (BAW), 128-well diet tray assay; conditions: Spodoptera exigua; Table ABC: Biological Results; species BAW; read-out: BAW
How it was run: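 Eight diet wells per compound were treated at 50 μg/cm^2 (acetone-water 90:10), dried, then infested with 1–5 second-instar larvae each. After five to seven days at 25 °C under 14:10 photoperiod, mortality was scored and averaged across wells.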

Row | Compound | YFM [1] | pest or weed control at 50 µg/cm2 [2] | pest or weed control at 50 µg/cm2 [3]
1 | Nc1c(F)ccc(NC(=O)c2cc(NC(=O)[C@H]3[C@H](c4cc(Cl)c(F)c(Cl)c4)C3(Cl)Cl)ccc2Cl)c1F (relative stereo) [F1181, trans-N-(3-Amino-2,4-difluorophenyl)-2-chloro-5-(2,2-dichloro-3-(3,5-dichloro-4-fluorophenyl)cyclopropane-1-carboxamido)benzamide] | A (80–100) | 50 to 100% | 50 to 100%
2 | Nc1c(F)ccc(NC(=O)c2cc(NC(=O)[C@H]3[C@@H](c4cc(Cl)c(F)c(Cl)c4)C3(Cl)Cl)ccc2Cl)c1F (relative stereo) [F1182, cis-N-(3-Amino-2,4-difluorophenyl)-2-chloro-5-(2,2-dichloro-3-(3,5-dichloro-4-fluorophenyl)cyclopropane-1-carboxamido)benzamide] | A (80–100) | 50 to 100% | 50 to 100%
3 | Cc1cc(NC(=O)[C@H]2[C@H](c3ccc(F)c(Cl)c3)C2(Cl)Cl)cc(C(=O)Nc2ccccc2)c1Cl (relative stereo) [F1183, trans-2-Chloro-5-(2,2-dichloro-3-(3-chloro-4-fluorophenyl)cyclopropane-1-carboxamido)-3-methyl-N-phenylbenzamide] | A (80–100) | 50 to 100% | 50 to 100%
4 | Cc1cc(NC(=O)[C@H]2[C@H](c3ccc(F)c(Cl)c3)C2(Cl)Cl)cc(C(=O)Nc2ccc(F)cc2)c1Cl (relative stereo) [F1184, trans-2-Chloro-5-(2,2-dichloro-3-(3-chloro-4-fluorophenyl)cyclopropane-1-carboxamido)-N-(4-fluorophenyl)-3-methylbenzamide] | A (80–100) | 50 to 100% | 50 to 100%
5 | CC(=O)Nc1ccc(NC(=O)c2cc(NC(=O)[C@H]3[C@H](c4ccc(F)c(Cl)c4)C3(Cl)Cl)cc(C)c2Cl)cc1 (relative stereo) [F1186, trans-N-(4-Acetamidophenyl)-2-chloro-5-(2,2-dichloro-3-(3-chloro-4-fluorophenyl)cyclopropane-1-carboxamido)-3-methylbenzamide] | A (80–100) | 50 to 100% | 50 to 100%
6 | Cc1c(Cl)cc(NC(=O)[C@H]2[C@H](c3ccc(F)c(Cl)c3)C2(Cl)Cl)cc1C(=O)Nc1ccccc1 (relative stereo) [F1188, trans-3-Chloro-5-(2,2-dichloro-3-(3-chloro-4-fluorophenyl)cyclopropane-1-carboxamido)-2-methyl-N-phenylbenzamide] | A (80–100) | 50 to 100% | 50 to 100%
7 | Cc1c(Cl)cc(NC(=O)[C@H]2[C@H](c3ccc(F)c(Cl)c3)C2(Cl)Cl)cc1C(=O)Nc1ccc(F)cc1 (relative stereo) [F1189, trans-3-Chloro-5-(2,2-dichloro-3-(3-chloro-4-fluorophenyl)cyclopropane-1-carboxamido)-N-(4-fluorophenyl)-2-methylbenzamide] | A (80–100) | 50 to 100% | 50 to 100%
8 | CC(=O)Nc1ccc(NC(=O)c2cc(NC(=O)[C@H]3[C@H](c4ccc(F)c(Cl)c4)C3(Cl)Cl)cc(Cl)c2C)cc1 (relative stereo) [F1191, trans-N-(4-Acetamidophenyl)-3-chloro-5-(2,2-dichloro-3-(3-chloro-4-fluorophenyl)cyclopropane-1-carboxamido)-2-methylbenzamide] | A (80–100) | 50 to 100% | 50 to 100%
9 | O=C(Nc1ccccc1)c1cc(NC(=O)[C@H]2[C@H](c3ccc(F)c(Cl)c3)C2(Cl)Cl)cc(C(F)(F)F)c1Cl (relative stereo) [F1212, trans-2-Chloro-5-(2,2-dichloro-3-(3-chloro-4-fluorophenyl)cyclopropane-1-carboxamido)-N-phenyl-3-(trifluoromethyl)benzamide] | A (80–100) | 50 to 100% | 50 to 100%
